# Experimental data taken from PMC11808136, “Screening and identification of host signaling pathways for alleviating influenza-induced production of pro-inflammatory cytokines, IP-10, IL-8, and MCP-1, using a U937 cell-based influenza model” (Frontiers in Microbiology, 2025).
# Structures can show the parent of a compound that is named as a salt. Where two headings read alike, the source gives them in different places.
# Assays:
# [1] = test system: IP-10 production in influenza virus-infected U937 cells (H1N1); assay: cells; type: cell-based
# [2] = test system: IL-8 production in influenza virus-infected U937 cells (H1N1); assay: cells; type: cell-based, Human
# [3] = test system: MCP-1 production in influenza virus-infected U937 cells (H1N1); assay: cells; type: cell-based
# in vitro = conditions: human
# [4] = secondary screen, Supplemental Table 1, read-out: EC50 IP-10
# [5] = secondary screen, Supplemental Table 1, read-out: EC50 IL-8
# [6] = secondary screen, Supplemental Table 1, read-out: EC50 MCP-1
# [7] = secondary screen, Supplemental Table 1
# [8] = Homo sapiens, U-937, read-out: EC50 IP-10
# [9] = CC50, secondary screen, Supplemental Table 1
# [10] = Homo sapiens, U-937, secondary screen, Supplemental Table 1, read-out: EC50 IL-8
# [11] = Homo sapiens, U-937, read-out: EC50 MCP-1
# [12] = Homo sapiens, U-937, secondary screen, Supplemental Table 1, read-out: EC50 IP-10
# [13] = Homo sapiens, U-937, secondary screen, Supplemental Table 1, read-out: EC50 MCP-1
compound,measurement,setting,value
Cc1ccc(NC(=O)c2cccc(C(C)(C)C#N)c2)cc1Nc1ccc2ncn(C)c(=O)c2c1 [AZ 628],EC50,[1]; [4],970 nM
same,EC50,[2]; [5],100 nM
same,EC50,[3]; [6],180 nM
same,CC50,U937 cells; [7],> 100000 nM
Cc1cc(Nc2nc(N[C@@H](C)c3ccc(F)cc3)c(C#N)cc2F)n[nH]1 [AZ 960],EC50,[1]; [8],10 nM
same,CC50,in vitro; [9],6000 nM
same,EC50,[2]; [10],< 5 nM
same,EC50,[3]; [11],< 5 nM
"Cc1ccc(-n2nc(C(C)(C)C)cc2NC(=O)Nc2ccc(OCCN3CCOCC3)c3ccccc23)cc1 [BIRB 796, Doramapimod]",EC50,[1]; [8],9200 nM
same,CC50,in vitro,> 100000 nM
same,IC50,"[2]; Homo sapiens, U-937",5200 nM
same,EC50,[2]; [10],5220 nM
same,EC50,[3]; [11],10000 nM
same,IC50,"[3]; Homo sapiens, U-937, read-out: IC50 MCP-1",10000 nM
O=C(Nc1cccc(Nc2ncc(Br)c(NCCc3cnc[nH]3)n2)c1)N1CCCC1 [BX-912],EC50,[1]; [4],1050 nM
same,EC50,[2]; [5],410 nM
same,EC50,[3]; [6],360 nM
same,CC50,U937 cells; [7],> 100000 nM
"Cc1ccc(NC(=O)c2ccc(CN3CC[C@H](N(C)C)C3)c(C(F)(F)F)c2)cc1Nc1nccc(-c2cncnc2)n1 [Bafetinib (INNO-406), Bafetinib]",EC50,[1]; [8],410 nM
same,CC50,in vitro; [9],100000 nM
same,EC50,[2]; [10],590 nM
same,EC50,[3]; [11],860 nM
CN1CCN(c2cccc(Nc3nc4c(-c5ccc(S(C)(=O)=O)cc5)cccn4n3)c2)CC1 [CEP-33779],EC50,[1]; [4],220 nM
same,EC50,[2]; [5],360 nM
same,EC50,[3]; [6],240 nM
same,CC50,U937 cells; [7],10500 nM
CC#CC(=O)Nc1ccc2ncnc(Nc3cccc(Br)c3)c2c1 [CL-387785 (EKI-785)],EC50,[1]; [4],410 nM
same,EC50,[2]; [5],420 nM
same,EC50,[3]; [6],640 nM
same,CC50,U937 cells; [7],7090 nM
C=CC(=O)Nc1cccc(Nc2nc(Nc3ccc(Oc4ccnc(C(=O)NC)c4)cc3)ncc2F)c1 [CNX-774],EC50,[1]; [4],1460 nM
same,EC50,[2]; [5],10 nM
same,EC50,[3]; [6],160 nM
same,CC50,U937 cells; [7],15500 nM
N#CCNC(=O)c1ccc(-c2ccnc(Nc3ccc(N4CCOCC4)cc3)n2)cc1 [CYT387],EC50,[1]; [12],480 nM
same,CC50,in vitro; [9],5400 nM
same,EC50,[2]; [10],300 nM
same,EC50,[3]; [13],30 nM
"CCS(=O)(=O)N1CCN(c2ccc(Nc3ncc(C(N)=O)c(NC4CC4)n3)cc2)CC1 [Cerdulatinib (PRT062070, PRT2070), Cerdulatinib]",EC50,[1]; [12],50 nM
same,CC50,in vitro; [9],3500 nM
same,EC50,[2]; [10],< 5 nM
same,EC50,[3]; [13],20 nM
C=CC(=O)Nc1ccc(CN2C(=O)N(c3cc(OC)cc(OC)c3)Cc3cnc(Nc4ccc(N5CCN(C)CC5)cc4)nc32)cc1 [FIIN-2],EC50,[1]; [4],320 nM
same,EC50,[2]; [5],30 nM
same,EC50,[3]; [6],140 nM
same,CC50,U937 cells; [7],16700 nM
"COc1cc(Nc2ncc(F)c(Nc3ccc4c(n3)N(COP(=O)(O)O)C(=O)C(C)(C)O4)n2)cc(OC)c1OC [Fostamatinib (R788), Fostamatinib]",EC50,[1]; [12],500 nM
same,CC50,in vitro; [9],40000 nM
same,EC50,[2]; [10],340 nM
same,EC50,[3]; [13],170 nM
Cc1ccc(C(=O)Nc2ccc(CN3CCN(C)CC3)c(C(F)(F)F)c2)cc1C#Cc1cnc2[nH]ncc2c1 [GZD824],EC50,[1]; [12],< 5 nM
same,CC50,in vitro; [9],4800 nM
same,EC50,[2]; [10],< 5 nM
same,EC50,[3]; [13],< 5 nM
O=C(c1ccc(Nc2nccc(-c3cc4ccccc4s3)n2)cc1)N1CCC(N2CCCC2)CC1 [IKK-16 (IKK Inhibitor VII)],EC50,[1]; [4],< 5 nM
same,EC50,[2]; [5],< 5 nM
same,EC50,[3]; [6],< 5 nM
same,CC50,U937 cells; [7],8900 nM
O=C(Nc1cc(C(F)(F)F)cc(C(F)(F)F)c1)c1cc(Cl)ccc1O [IMD 0354],EC50,[1]; [12],80 nM
same,CC50,in vitro,1100 nM
same,EC50,[2]; [10],20 nM
same,EC50,[3]; [13],60 nM
CC(C)n1nc(-c2ccc3oc(N)nc3c2)c2c(N)ncnc21 [INK 128 (MLN0128)],EC50,[1]; [4],120 nM
same,EC50,[3]; [6],40 nM
same,CC50,U937 cells; [7],5900 nM
Cc1cc(Nc2cc(CN3CCOCC3)c3nc(C)c(Cc4ccc(Cl)cc4F)n3n2)n[nH]1 [LY2784544],EC50,[1]; [12],10 nM
same,CC50,in vitro; [9],26000 nM
same,EC50,[2]; [10],< 5 nM
same,EC50,[3]; [13],< 5 nM
C[C@@H](Oc1ccc2[nH]nc(/C=C/c3cnn(CCO)c3)c2c1)c1c(Cl)cncc1Cl [LY2874455],EC50,[1]; [12],< 5 nM
same,CC50,in vitro; [9],3400 nM
same,EC50,[2]; [10],< 5 nM
same,EC50,[3]; [13],< 5 nM
CNS(=O)(=O)C[C@H]1CC[C@H](N(C)c2ncnc3[nH]ccc23)CC1 [Oclacitinib],EC50,[1]; [8],180 nM
same,CC50,in vitro; [9],50000 nM
same,EC50,[2]; [10],50 nM
same,EC50,[3]; [11],190 nM
"NC(=O)c1cnc2[nH]ccc2c1N[C@@H]1[C@@H]2CC3C[C@H]1C[C@@](O)(C3)C2 [Peficitinb (ASP015K, JNJ-54781532), Peficitinb]",EC50,[1]; [4],20 nM
same,EC50,[3]; [6],10 nM
same,CC50,U937 cells; [7],34700 nM
"CCOc1cc2ncc(C#N)c(Nc3ccc(F)c(Cl)c3)c2cc1NC(=O)/C=C/CN(C)C [Pelitinib (EKB-569), Pelitinib]",EC50,[1]; [12],130 nM
same,CC50,in vitro; [9],1700 nM
same,EC50,[3]; [13],20 nM
"C=CC(=O)N1CCC(Oc2cc3c(Nc4ccc(Cl)c(Cl)c4F)ncnc3cc2OC)CC1 [Poziotinib (HM781-36B), Poziotinib]",EC50,[1]; [12],570 nM
same,CC50,in vitro; [9],24100 nM
same,EC50,[2]; [10],340 nM
same,EC50,[3]; [13],660 nM
COc1cc(Nc2ncc(F)c(Nc3ccc4c(n3)NC(=O)C(C)(C)O4)n2)cc(OC)c1OC [R406 (free base)],EC50,[1]; [4],700 nM
same,EC50,[2]; [5],2750 nM
same,EC50,[3]; [6],1130 nM
same,CC50,U937 cells; [7],> 100000 nM
COc1cc(Nc2ncc(F)c(Nc3ccc4c(n3)N(COP(=O)(O)O)C(=O)C(C)(C)O4)n2)cc(OC)c1OC [R788 (Fostamatinib) Disodium],EC50,[1]; [4],390 nM
same,EC50,[2]; [5],60 nM
same,EC50,[3]; [6],160 nM
same,CC50,U937 cells; [7],7400 nM
"CNC(=O)c1cc(Oc2ccc(NC(=O)Nc3ccc(Cl)c(C(F)(F)F)c3)c(F)c2)ccn1 [Regorafenib (BAY 73-4506), Regorafenib]",EC50,[1]; [12],1800 nM
same,CC50,in vitro; [9],20000 nM
same,EC50,[2]; [10],610 nM
same,EC50,[3]; [13],1710 nM
"N#CC[C@H](C1CCCC1)n1cc(-c2ncnc3[nH]ccc23)cn1 [Ruxolitinib (INCB018424), Ruxolitinib]",EC50,[1]; [12],70 nM
same,CC50,in vitro; CC50,100000 nM
same,EC50,"[2]; Homo sapiens, U-937, read-out: EC50 IL-8",120 nM
same,EC50,[3]; [13],30 nM
Cc1cc(Nc2ncc3c(n2)N(C)C(=O)N(c2cc(NC(=O)c4cccc(C(F)(F)F)c4)ccc2C)C3)n(C)n1 [SC1],EC50,[1]; [4],10 nM
same,EC50,[2]; [5],< 5 nM
same,EC50,[3]; [6],40 nM
same,CC50,U937 cells; [7],> 100000 nM
Cc1c[nH]c2nc(Nc3ccc(N4CCN(C)CC4)c(F)c3)nc(-c3cccc(CC#N)c3)c12 [SGI-7079],EC50,[1]; [4],< 5 nM
same,EC50,[2]; [5],< 5 nM
same,EC50,[3]; [6],< 5 nM
same,CC50,U937 cells; [7],3850 nM
CCN(CC)CCNC(=O)c1c(C)[nH]c(/C=C2\C(=O)Nc3ccc(F)cc32)c1C [Sunitinib Malate],EC50,[1]; [12],660 nM
same,CC50,in vitro; [9],24900 nM
same,EC50,[2]; [10],50 nM
same,EC50,[3]; [13],350 nM
NC(=O)Nc1sc(-c2ccc(F)cc2)cc1C(N)=O [TPCA-1],EC50,[1]; [4],70 nM
same,EC50,[2]; [5],280 nM
same,EC50,[3]; [6],120 nM
same,CC50,U937 cells; [7],11000 nM
C[C@@H]1CCN(C(=O)CC#N)C[C@@H]1N(C)c1ncnc2[nH]ccc12 [Tofacitinib (CP-690550) Citrate],CC50,U937 cells; [7],> 100000 nM
C[C@@H]1CCN(C(=O)CC#N)C[C@@H]1N(C)c1ncnc2[nH]ccc12 [Tofacitinib],CC50,in vitro; CC50,> 100000 nM
CC(C)(C)c1cc(C=C(C#N)C#N)cc(C(C)(C)C)c1O [Tyrphostin 9],EC50,[1]; [4],90 nM
same,EC50,[2]; [5],40 nM
same,EC50,[3]; [6],80 nM
same,CC50,U937 cells; [7],8260 nM
C=CC(=O)Nc1cccc(Oc2nc(Nc3ccc(N4CCN(C)CC4)cc3)ncc2Cl)c1 [WZ3146],EC50,[1]; [4],680 nM
same,EC50,[2]; [5],10 nM
same,EC50,[3]; [6],< 5 nM
same,CC50,U937 cells,14000 nM
S-Ruxolitinib [S-Ruxolitinib (INCB018424)],EC50,[1]; read-out: EC50 IP-10,80 nM
same,EC50,[2]; read-out: EC50 IL-8,30 nM
same,EC50,[3]; read-out: EC50 MCP-1,60 nM
